{
  "source": "patent US20240335490A1",
  "about": "“COMPOSITION FOR PREVENTING OR AMELIORATING LOCOMOTIVE SYNDROME” (DIC Corporation, priority 2021, published 2024)",
  "key": {"[1]": {"system": "male and female subjects who feel a decline in mobility", "assay": "Mobility ameliorating effect questionnaire (0 to 10 scale, ease of walking)", "format": "in vivo, human", "details": "conclusion from the results of Table 1", "description": "(§1) Ingredients were mixed at proportions shown in Table 1 below and subjected to tablet molding to produce tableted products in Examples 1 to 3 and Comparative Examples 1 and 2 in the present invention. As the blended ingredients, commercially available products were used. In order to uniform appearance, Blue No. 2 was added to adjust the color. In each of Examples and Comparative Examples, six tableted products were produced such that the daily intake was 1,800 mg.\n(§2) Twenty male and female subjects who feel a decline in mobility in their 40s to 70s were divided into five groups of four subjects each. In each group, two tablets in each of Examples 1, 2, and 3 and Comparative Examples 1 and 2 were taken three times a day in the morning, noon, and evening for four weeks. Two weeks and four weeks after the initiation of the test, the following questionnaires were carried out.\nAn equal-interval scale of 0 to 10 was prepared, and a score of 5 that is the middle means no change, a score closer to 0 means that walking is difficult, and a score closer to 10 means that walking is easy. The subjects were made to plot the experience evaluation. Scores plotted by the subjects were considered to be test evaluation."}, "[2]": {"system": "male and female subjects who feel a decline in mobility", "assay": "Joint pain reducing effect questionnaire (0 to 10 scale, pain felt in walking)", "format": "in vivo, human", "details": "conclusion from the results of Table 1", "description": "as §1, §2\nAn equal-interval scale of 0 to 10 was prepared, and a score of 5 that is the middle means before the initiation of the test or no change, a score closer to 0 means deterioration, and a score closer to 10 means amelioration. The subjects were made to plot the experience evaluation of the joint pain reducing effect in which the subjects felt in walking. Scores plotted by the subjects were considered to be test evaluation."}},
  "data": [
    {"substance": "phycocyanin", "values": [
      {"measurement": "mobility ameliorating effect (conclusion in words)", "setting": "[1]", "value": "recognized to exert"},
      {"measurement": "effect on the joint (conclusion in words)", "setting": "[2]", "value": "recognized to exert the effect on the joint"}
    ]}
  ]
}
